Measurements from patent publication US20250297243A1, “SINGLE CELL MULTIOMICS” (BioSkryb Genomics, Inc., priority 2022, published 2025).

Test system: MOLM-13 acute myeloid leukemia cells
Assay: MOLM-13 quizartinib drug resistance model (cell growth under continual drug treatment)
Assay type: cell-based
Method: Since the ITD mutation, found in ˜20% of AML patients, hyperactivates FLT3 signaling and results in poor prognosis and relapse, non-resistant, drug-sensitive cells were treated with a continual dose of 2 nM quizartinib. This drug is a selective type II kinase inhibitor targeting FLT3. […] MOLM-13 acute myeloid leukemia cells harboring heterozygous FLT3 internal tandem duplication (ITD) were obtained from the DSMZ-German Collection of Microorganisms and Cell Cultures (ACC 554). Cells were maintained in RPMI 1640 (Gibco 11875-093) supplemented with 10% FBS and penicillin/streptomycin, and sub-cultured every 2-3 days while maintaining a density range of 2.5 E5-1.5 E6 cells/ml. For generation of the quizartinib-resistant MOLM-13 line, cells were continually treated with 2 nM quizartinib (Selleckchem AC220) or DMSO vehicle control for matched parental control line and drug replenished at each subculturing until emergence of resistant clones at 5 weeks duration in culture. Genomic DNA (Zymo Research Quick-DNA Microprep w\Plus Kit, D3020) or total RNA (Qiagen RNeasy Plus Kit, 74034) was isolated from quizartinib-resistant and matched parental MOLM-13 cells at time of FACS sorting to generate bulk sequencing control libraries for comparison to single cell datasets and for quantitative PCR template.

For CC(C)(C)c1cc(NC(=O)Nc2ccc(-c3cn4c(n3)sc3cc(OCCN5CCOCC5)ccc34)cc2)no1 [quizartinib], the “emergence of resistant clones, duration in culture” value (continual 2 nM quizartinib, drug replenished at each subculturing) was 5 weeks and the “growth inhibition/apoptosis of drug-sensitive MOLM-13 cells” value (continual dose of 2 nM quizartinib, FLT3 ITD MOLM-13 cells, before resistance emerged) was “marked growth inhibition/apoptosis”.
